Measured values taken from patent US7528141B2, “Use of cyclopenta[g]quinazoline derivatives for treating cancer” (BTG International Limited, priority 2001, dated 2009).
Where two headings read alike, the source gives them in different places.

Columns and labels:
[1] = biological target: T1, thymidylate synthase (TS) from L1210 mouse leukaemia cells (Mus musculus, UniProt P07607); assay: Inhibition of isolated L1210 thymidylate synthase; assay type: biochemical; settings: read-out: Inhibition of isolated L1210 TS, Kiapp
T1 construct: obtained in partially purified form from L1210 mouse leukaemia cells; endogenous in cells; host or cells: L1210 mouse leukaemia cells (enzyme partially purified)

[2] = biological target: T2, reduced-folate carrier (RFC) (Mus musculus, UniProt P41438); assay: Inhibition of 3H MTX uptake in L1210 cells; assay type: cell-based; settings: Inhibition of 3H MTX uptake Ki, L1210, mouse L1210 tumor cells; high Ki = low affinity for RFC
T2 construct: endogenous in cells; host or cells: L1210
T2 sequence (P41438 1-512): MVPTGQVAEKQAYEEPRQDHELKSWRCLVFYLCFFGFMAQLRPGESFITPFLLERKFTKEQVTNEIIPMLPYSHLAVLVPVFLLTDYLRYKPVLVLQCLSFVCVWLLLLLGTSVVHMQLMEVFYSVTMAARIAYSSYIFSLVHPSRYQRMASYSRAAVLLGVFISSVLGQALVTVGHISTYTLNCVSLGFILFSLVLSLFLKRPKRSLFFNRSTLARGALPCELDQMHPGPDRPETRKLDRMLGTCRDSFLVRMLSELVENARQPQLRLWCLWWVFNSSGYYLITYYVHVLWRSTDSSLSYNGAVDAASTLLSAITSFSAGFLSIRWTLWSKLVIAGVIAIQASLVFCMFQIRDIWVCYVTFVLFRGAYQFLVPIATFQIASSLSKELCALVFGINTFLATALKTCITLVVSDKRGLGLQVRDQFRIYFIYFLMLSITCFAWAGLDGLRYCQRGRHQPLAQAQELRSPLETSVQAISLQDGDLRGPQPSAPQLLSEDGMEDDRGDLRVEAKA

[3] = biological target: T3, reduced-folate carrier (RFC) (Homo sapiens, UniProt P41440); assay: Inhibition of 3H MTX uptake in W1L2 cells; assay type: cell-based; settings: Inhibition of 3H MTX uptake Ki, W1L2, human lymphoblastoid W1L2 cells; high Ki = low affinity for RFC
T3 construct: endogenous in cells; host or cells: W1L2
T3 sequence (P41440 1-591): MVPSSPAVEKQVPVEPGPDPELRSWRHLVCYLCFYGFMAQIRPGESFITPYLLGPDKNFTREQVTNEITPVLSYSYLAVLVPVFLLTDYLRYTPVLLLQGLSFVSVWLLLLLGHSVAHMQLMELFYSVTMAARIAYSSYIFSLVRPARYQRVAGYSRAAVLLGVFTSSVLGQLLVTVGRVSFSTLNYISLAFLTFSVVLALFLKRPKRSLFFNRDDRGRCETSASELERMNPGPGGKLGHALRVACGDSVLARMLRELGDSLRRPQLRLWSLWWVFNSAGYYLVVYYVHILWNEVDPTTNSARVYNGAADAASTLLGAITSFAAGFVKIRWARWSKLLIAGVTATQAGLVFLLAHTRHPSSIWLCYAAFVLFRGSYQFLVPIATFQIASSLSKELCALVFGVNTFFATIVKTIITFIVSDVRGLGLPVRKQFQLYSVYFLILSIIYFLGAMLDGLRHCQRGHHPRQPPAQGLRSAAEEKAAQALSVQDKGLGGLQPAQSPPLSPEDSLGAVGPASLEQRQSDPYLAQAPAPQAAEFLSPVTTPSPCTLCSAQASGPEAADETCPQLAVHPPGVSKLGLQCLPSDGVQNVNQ

α-FR [4] = biological target: T4, α-FR (Mus musculus, UniProt P35846); assay: Binding to α-FR relative to folic acid, L1210-FBP cells; settings: L1210-FBP mouse tumor cells overexpressing α-FR; folic acid = 1
T4 construct: endogenous in cells; host or cells: mouse L1210-FBP cells

α-FR [5] = biological target: T5, α-FR (Homo sapiens, UniProt P15328); assay: Binding to α-FR relative to folic acid, A431-FBP cells; settings: human A431 cells transfected with α-FR; folic acid = 1
T5 construct: expressed in transfected cells; host or cells: A431 (human vulvar carcinoma)

KB cells = assay: Inhibition of cell growth, KB cells; settings: for fold increased IC50 in presence of folic acid, KB: IC50 + 1 μM FA vs without FA;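 on all read-outs here: KB nasopharyngeal carcinoma cells express the α-folate receptor, and leucovorin at 20 nM was the folate source in the growth medium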
A431 cells = assay: Inhibition of cell growth, A431 cells; settings: for fold increased IC50 in presence of folic acid, A431: IC50 + 1 μM FA vs without FA
A431-FBP cells = assay: Inhibition of cell growth, A431-FBP cells; settings: for fold increased sensitivity compared with A431, A431-FBP: A431 IC50 vs A431-FBP IC50; for fold increased IC50 in presence of folic acid, A431-FBP: IC50 + 1 μM FA vs without FA
[6] = Homo sapiens, KB, read-out: Inhibition of cell growth, IC50, KB, 20 nM LV
[7] = Homo sapiens, A-431, read-out: Inhibition of cell growth, IC50, A431
[8] = Homo sapiens, read-out: Inhibition of cell growth, IC50, A431-FBP

T5 sequence (P15328 25-234): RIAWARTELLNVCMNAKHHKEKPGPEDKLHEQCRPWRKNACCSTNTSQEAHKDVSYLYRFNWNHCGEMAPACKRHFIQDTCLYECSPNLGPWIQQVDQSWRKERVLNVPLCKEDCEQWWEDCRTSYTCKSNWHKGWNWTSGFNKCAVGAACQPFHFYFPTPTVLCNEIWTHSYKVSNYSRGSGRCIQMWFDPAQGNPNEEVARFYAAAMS
T4 sequence (P35846 25-232): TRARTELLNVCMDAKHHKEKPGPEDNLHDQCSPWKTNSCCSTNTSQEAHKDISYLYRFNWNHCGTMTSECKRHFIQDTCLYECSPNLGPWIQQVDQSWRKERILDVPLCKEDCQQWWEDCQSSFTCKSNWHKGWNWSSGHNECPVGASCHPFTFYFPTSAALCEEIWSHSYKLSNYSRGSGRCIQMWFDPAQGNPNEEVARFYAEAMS
T1 sequence (P07607 whole entry): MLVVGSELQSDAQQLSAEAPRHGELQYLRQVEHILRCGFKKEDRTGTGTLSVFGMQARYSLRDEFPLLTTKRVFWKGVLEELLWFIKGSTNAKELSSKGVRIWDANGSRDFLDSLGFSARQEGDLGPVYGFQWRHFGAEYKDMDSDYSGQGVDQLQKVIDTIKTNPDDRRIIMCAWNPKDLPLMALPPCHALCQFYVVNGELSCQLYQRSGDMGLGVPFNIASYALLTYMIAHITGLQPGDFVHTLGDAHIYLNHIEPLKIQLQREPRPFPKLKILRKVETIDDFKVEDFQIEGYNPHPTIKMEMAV

## C#CCN(c1ccc(C(=O)N[C@@H](CCC(=O)N[C@H](CCC(=O)O)C(=O)O)C(=O)O)cc1)C1CCc2cc3nc(C)[nH]c(=O)c3cc21 (mixture of isomers) [CB300638 (R, S), N-{-{4-[N-((6RS)-2-methyl-4-oxo-3,4,7,8-tetrahydro-6H-cyclopenta[g]quinazolin-6-yl)-N-(prop-2-ynyl)amino]benzoyl}-L-γ-glutamyl}-D-glutamic acid]
[1]
  Ki: 0.42 nM
[2]
  Ki: 166000 ± 34000 nM
[3]
  Ki: 279000 ± 146000 nM
α-FR [4]
  Inverse relative affinity for α-FR, L1210-FBP: 0.60 ± 0.06
α-FR [5]
  Inverse relative affinity for α-FR, A431-FBP: 0.59 ± 0.03
KB cells; 20 nM LV
  fold increased IC50 in presence of folic acid, KB: (140) fold
KB cells; [6]
  IC50: 5.3 ± 2.5 nM
A431 cells; 20 nM LV
  fold increased IC50 in presence of folic acid, A431: (1) fold
A431 cells; [7]
  IC50: 1400 ± 230 nM
A431-FBP cells; 20 nM LV
  fold increased sensitivity compared with A431, A431-FBP: (220) fold
  fold increased IC50 in presence of folic acid, A431-FBP: (130) fold
A431-FBP cells; [8]
  IC50: 6.5 ± 0.1 nM

## C#CCN(c1ccc(C(=O)N[C@@H](CCC(=O)N(C)C(CCC(=O)O)C(=O)O)C(=O)O)cc1)C1CCc2cc3nc(C)[nH]c(=O)c3cc21 (mixture of isomers) [CB300899 (R, S), N-methyl-N-{N-{4-[N-((6RS)-2-methyl-4-oxo-3,4,7,8-tetrahydro-6H-cyclopenta[g]quinazolin-6-yl)-N-(prop-2-ynyl)amino]benzoyl}-L-γ-glutamyl}-L-glutamic acid]
[1]
  Ki: 0.78 nM
[2]
  Ki: > 250000 nM
[3]
  Ki: > 250000 nM
α-FR [4]
  Inverse relative affinity for α-FR, L1210-FBP: 0.62 ± 0.04
α-FR [5]
  Inverse relative affinity for α-FR, A431-FBP: 0.64 ± 0.046
KB cells; 20 nM LV
  fold increased IC50 in presence of folic acid, KB: (430) fold
KB cells; [6]
  IC50: 5.1 ± 0.31 nM
KB cells; read-out: Inhibition of cell growth, IC50, KB + 1 μM FA, 20 nM LV, + 1 μM folic acid
  IC50: 2200 ± 400 nM
A431 cells; 20 nM LV
  fold increased IC50 in presence of folic acid, A431: (1) fold
A431 cells; [7]
  IC50: 2200 ± 170 nM
A431 cells; read-out: Inhibition of cell growth, IC50, A431 + 1 μM FA, 20 nM LV, + 1 μM folic acid
  IC50: 2100 ± 58 nM
A431-FBP cells; 20 nM LV
  fold increased sensitivity compared with A431, A431-FBP: (2400) fold
  fold increased IC50 in presence of folic acid, A431-FBP: (2100) fold
A431-FBP cells; [8]
  IC50: 0.92 ± 0.12 nM
A431-FBP cells; read-out: Inhibition of cell growth, IC50, A431-FBP + 1 μM FA, 20 nM LV, + 1 μM folic acid
  IC50: 1900 ± 170 nM
